Results published in US12398127B2, “Thyroid hormone receptor beta agonist compounds” (Terns Pharmaceuticals, Inc., priority 2019, dated 2025).

What was measured:
TR beta-LBD = target: T1, TR beta-LBD (Homo sapiens, UniProt P10828); experiment: LanthaScreen TR-FRET Thyroid Receptor beta Coactivator Assay; assay type: biochemical; conditions: for THRβ-Selectivity: THR beta over THR alpha, derived from T3-selectivity normalized data; for EC50: TR-FRET coactivator recruitment, 2 hour incubation at room temperature, run in duplicate multiple times, average data reported, read-out: EC50 THRβ-FRET
T1 construct: TR alpha-LBD (0.4 nM final concentration) or TR beta-LBD (1.0 nM final concentration) was added; purchased ThermoFisher
T1 sequence (P10828 217-461 limits assumed): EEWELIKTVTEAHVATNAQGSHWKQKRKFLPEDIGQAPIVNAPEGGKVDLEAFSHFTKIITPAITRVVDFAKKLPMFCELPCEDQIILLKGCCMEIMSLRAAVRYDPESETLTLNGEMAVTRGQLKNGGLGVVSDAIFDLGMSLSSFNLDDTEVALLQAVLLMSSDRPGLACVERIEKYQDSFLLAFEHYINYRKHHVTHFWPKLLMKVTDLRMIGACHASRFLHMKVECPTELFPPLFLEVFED
Description: (§1) LanthaScreen™ TR-FRET Thyroid Receptor alpha Coactivator Assay kit (ThermoFisher) and LanthaScreen™ TR-FRET Thyroid Receptor beta Coactivator Assay kit (ThermoFisher) were used for agonist compound screening. Compounds in DMSO were diluted using ECHO Liquid Handler (Labcyte Inc.) into 384 plates in 10-point 3-fold series in duplicate (5 micro M final top concentration). Buffer C (ThermoFisher) was added to each well before the 4×mixture of fluorescein-SCR2-2 coactivator (200 nM final concentration), Terbium-labeled anti-GST antibody (2 nM final concentration), and TR alpha-LBD (0.4 nM final concentration) or TR beta-LBD (1.0 nM final concentration) was added. After 2 hour incubation at room temperature in dark, the TR-FRET signal was measured on an EnVision plate reader (PerkinElmer) with excitation at 340 nm and dual emission readout at 495 and 520 nm with the delay time of 100 micro second and the integration time of 200 micro second. The ratio of emission signal at 520 and at 495 was used to calculate EC50 using GraphPad Prism (GraphPad Software). In every batch of compound screening, T3 (L-3,3′,5-Triiodothyronine sodium salt, >95%) (Calbiochem) was used as reference compound. The EC50 of T3 measured were within 3-fold of the reference value provided by the assay kit manufacturer (ThermoFisher Scientific). The Z′ factors measured in every batch of screening using T3 as high percent effect (HPE) control and 0.5% DMSO as zero percent effect (ZPE) control were in the range of 0.5 to 0.8. Compounds' THR-beta selectivity values are derived from T3-selectivity normalized data.

TR alpha-LBD = target: T2, TR alpha-LBD (Homo sapiens, UniProt P10827); experiment: LanthaScreen TR-FRET Thyroid Receptor alpha Coactivator Assay; assay type: biochemical; conditions: TR-FRET coactivator recruitment, 2 hour incubation at room temperature; run in duplicate multiple times, average data reported; read-out: EC50 THRα-FRET
T2 construct: TR alpha-LBD (0.4 nM final concentration) or TR beta-LBD (1.0 nM final concentration) was added; purchased ThermoFisher
Description: as §1, with “The EC50 of T3 measured were within 3-fold of the reference value provided by the assay kit manufacturer (ThermoFisher Scientific).” left out, “Compounds' THR-beta selectivity values are derived from T3-selectivity normalized data.” left out

T2 sequence (P10827 163-410 isoform P10827-2 limits assumed, other chains not shown): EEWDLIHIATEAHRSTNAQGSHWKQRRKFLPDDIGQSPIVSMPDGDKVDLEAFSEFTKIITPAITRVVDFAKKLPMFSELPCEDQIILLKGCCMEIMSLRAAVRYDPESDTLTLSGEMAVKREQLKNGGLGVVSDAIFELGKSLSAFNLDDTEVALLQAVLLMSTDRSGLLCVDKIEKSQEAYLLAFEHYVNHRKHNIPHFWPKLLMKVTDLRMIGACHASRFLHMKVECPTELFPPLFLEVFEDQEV

| THRβ-Selectivity (TR beta-LBD) | EC50 (TR beta-LBD) | EC50 (TR alpha-LBD) | SMILES |
| --- | --- | --- | --- |
| 57.5 | 33.7 nM | 492 nM | O=C(Nc1cc(Cl)c(Oc2n[nH]c(=O)c3ccccc23)c(Cl)c1)c1noc(=O)[nH]1 [Example 1, N-(3,5-dichloro-4-((4-oxo-3,4-dihydrophthalazin-1-yl)oxy)phenyl)-5-oxo-4,5-dihydro-1,2,4-oxadiazole-3-carboxamide] |
| 10.9 | 5.5 nM | 40.5 nM | Cn1nc(Oc2c(Cl)cc(NC(=O)c3noc(=O)[nH]3)cc2Cl)c2ccccc2c1=O [Example 2, N-(3,5-dichloro-4-((3-methyl-4-oxo-3,4-dihydrophthalazin-1-yl)oxy)phenyl)-5-oxo-4,5-dihydro-1,2,4-oxadiazole-3-carboxamide] |
